This data set can be described thus: solvent given as SMILES.
The mark [1] stands for this setting: in O=P(c1ccccc1)(c1ccccc1)c1ccccc1Oc1ccccc1P(=O)(c1ccccc1)c1ccccc1.

`CC1(C)c2ccccc2N(c2ccc(-c3ccc4c(c3)c3cc(-c5ccc(N6c7ccccc7C(C)(C)c7ccccc76)cc5)ccc3c3nc(C#N)c(C#N)nc43)cc2)c2ccccc21` had a fluorescence lifetime (in O=P(c1ccccc1)(c1ccccc1)c1cccc(-c2cc(-n3c4ccccc4c4ccccc43)cc(-n3c4ccccc4c4ccccc43)c2)n1) of 53.6 ns.
For the setting “in Cc1ccccc1”, `N#Cc1cc(-n2c3ccccc3c3ccccc32)c(-n2c3ccccc3c3ccccc32)cc1C#N` displayed a fluorescence lifetime of 28.5 ns.
The molecule `CN(c1ccccc1)c1ccc(N(c2ccccc2)c2ccc3ccc4c(N(c5ccccc5)c5ccc(N(C)c6ccccc6)cc5)ccc5ccc2c3c54)cc1` displayed a fluorescence lifetime (in ClCCl) of 1.1 ns.
On the same count and under the same terms, in the case of `CC1=C(c2ccccc2)C(C)=[N+]2C1=C(c1c(-c3ccccn3)nc3ccccn13)c1c(C)cc(C)n1[B-]2(F)F` it was 6.2 ns.
Regarding `c1ccc(N(c2ccccc2)c2ccc(-c3ccc(-c4cc(-c5ccccn5)nc(-c5ccccn5)c4)cc3)cc2)cc1`, under “in ClCCl”, the fluorescence lifetime is 2.68 ns.
As to `Cc1nc(-c2ccc(-n3c4ccccc4c4ccccc43)cc2)cc(-c2ccc(-n3c4ccccc4c4ccccc43)cc2)n1`, the fluorescence lifetime was found to be 4.1 ns (in C1CCOC1), 6.95 ns (in CN(C)C=O), 2.05 ns (in Cc1ccccc1) and 3.86 ns (in ClC(Cl)Cl).
Take `CCCn1c2cccc3oc4cccc5oc6cccc1c6[c+](c45)c32`: the fluorescence lifetime by setting is: (in CC#N) 23.2 ns; (in CO) 20.7 ns; (in ClCCl) 21.8 ns; (in OCC(O)CO) 19.7 ns.
As for `CSC1=C2C=C(c3cc4n(c3)[B-](F)(F)[N+]3=CC=CC3=C4c3c(C)cc(C)cc3C)C(C)=[N+]2[B-](F)(F)n2c(C)ccc21`, the fluorescence lifetime is, setting by setting: (in C1CCCCC1) 2.67 ns; (in CC#N) 0.17 ns; (in CC(C)=O) 0.39 ns; (in CCOC(C)=O) 0.97 ns; (in Cc1ccccc1) 1.81 ns.
Consider `COc1ccc(C2=[O+][B-](F)(F)OC(c3ccc4c(c3)Cc3ccccc3-4)=C2)cc1`, for which the fluorescence lifetime (in CC#N) amounted to 1.6 ns.
`COC(=O)c1c2ccccc2nc2ccccc12` returned a fluorescence lifetime (in C1CCOC1) of 1.1 ns; a fluorescence lifetime (in C1COCCO1) of 0.9 ns; a fluorescence lifetime (in CC#N) of 0.9 ns; a fluorescence lifetime (in CCCCCO) of 0.7 ns; a fluorescence lifetime (in CCCCO) of 0.8 ns; a fluorescence lifetime (in CCCO) of 0.7 ns. Further, the fluorescence lifetime reads like this: (in CCO) 0.8 ns; (in CO) 1.2 ns; (in COCCOC) 1.3 ns; (in ClC(Cl)Cl) 0.9 ns; (in ClCCl) 1.3 ns; (in OCCO) 1.1 ns.
As to `c1ccc(-n2c(-c3ccc(N(c4ccc(-c5ccc(N(c6ccc(-c7nc8c9ccccc9c9ccccc9c8n7-c7ccccc7)cc6)c6ccc(-c7nc8c9ccccc9c9ccccc9c8n7-c7ccccc7)cc6)cc5)cc4)c4ccc(-c5nc6c7ccccc7c7ccccc7c6n5-c5ccccc5)cc4)cc3)nc3c4ccccc4c4ccccc4c32)cc1`, the fluorescence lifetime (in ClCCl) was 1.68 ns.
Molecule `COC(=O)c1ccc(C#Cc2ccccc2)cc1` yielded a fluorescence lifetime (in C1CCCCC1) of 0.59 ns; a fluorescence lifetime (in CC#N) of 0.52 ns; a fluorescence lifetime (in CC(C)O) of 0.64 ns; a fluorescence lifetime (in CCCCCC) of 0.55 ns; a fluorescence lifetime (in CCCCCCCCCCCCCCCC) of 0.55 ns; a fluorescence lifetime (in CCCCCCCCCCCCCCCCCl) of 0.59 ns. For the setting “in CO”, this molecule came in with a fluorescence lifetime of 0.62 ns.
With `CCCCCCCCC1(CCCCCCCC)c2cc(-c3ccc([N+](=O)[O-])cc3)ccc2-c2ccc(-c3ccc([N+](=O)[O-])cc3)cc21`, the fluorescence lifetime reads like this: (in CN(C)C=O) 1.92 ns; (in CS(C)=O) 1.82 ns.
With `CC[B-]1(CC)c2cccc3cc4ccccc4c(c23)-c2cccc(C)[n+]21`, the fluorescence lifetime (in ClCCl) turned out to be 4.1 ns.
Turning to `c1ccc2c(-c3cc(-c4nccs4)nc(-c4nccs4)c3)cccc2c1`, the fluorescence lifetime turned out to be 1.96 ns (in CC#N), 2.24 ns (in CCCCCC), 1.86 ns (in CO) and 2.19 ns (in ClC(Cl)Cl).
For `O=P1(c2ccccc2)c2ccccc2-c2sc3ccccc3c21` (centres undefined), the fluorescence lifetime (in ClCCl) was 11.3 ns.
Under “in C1CCCCC1”, `Cc1ccc(C)cc1` came in with a fluorescence lifetime of 47 ns.
For `CCC1=C(C)C2=C(C)c3c(I)c(I)cn3[B-](F)(F)[N+]2=C1C`, the fluorescence lifetime by setting is: (in C1CCCCC1) 0.259 ns; (in CC(C)=O) 0.127 ns; (in CCO) 0.125 ns; (in CCOC(C)=O) 0.16 ns; (in CO) 0.122 ns; (in OCC(F)(F)F) 0.147 ns.
Molecule `c1cc(N2CCCC2)ccn1` registered a fluorescence lifetime (in CC1CCCCC1) of 11 ns.
Take `CC[n+]1nc2cc3c(cc2c2cc(C)ccc21)N(C)CCC3`: the fluorescence lifetime (in O) came out at 4.3 ns.
On to `Cc1cc2ccc(-c3cccc4cccc(-c5ccc6cc(C)c(=O)oc6c5)c34)cc2oc1=O`, for which the fluorescence lifetime is, setting by setting: (in C1CCCCC1) 0.85 ns; (in CC#N) 2.72 ns; (in CO) 5.38 ns.
`COC(=O)/C(C#N)=c1\s/c(=c2/s/c(=C(/C#N)C(=O)OC)c3cc(-c4ccccc4)sc23)c2sc(-c3ccccc3)cc12` returned a fluorescence lifetime (in Cc1ccccc1) of 2.82 ns.
Molecule `COc1ccc(C#Cc2c3cc4cc(C)sc4cc3c(C#Cc3ccc(OC)cc3)c3cc4cc(C)sc4cc23)cc1` yielded a fluorescence lifetime (in ClCCl) of 7.7 ns.
As to `Cc1cc2nc3[nH]c(=O)[nH]c(=O)c3nc2cc1C`, the fluorescence lifetime (in CC#N) stood at 0.64 ns.
Under “in ClCCl”, `Cc1cc(-c2ccc(-c3ccccc3)cc2)cc(C)[o+]1` had a fluorescence lifetime of 3.4 ns.
Regarding `Cc1ccc(C2=C3C=C(I)C=[N+]3[B-](F)(F)n3c2cc(I)c3I)cc1`, the fluorescence lifetime is 0.327 ns (in C1CCCCC1); 0.142 ns (in CC#N); 0.196 ns (in CCO); 0.207 ns (in CCOC(C)=O); 0.179 ns (in CO); 0.185 ns (in OCC(F)(F)F).
`Cc1cc(-c2nc(-c3ccccc3)nc(-c3ccccc3)n2)ccc1-n1c2ccccc2c2cc3c(cc21)C1c2ccccc2C3c2ccccc21` gave a fluorescence lifetime under setting [1] of 10.6 ns.
Molecule `COc1c2ccccc2c(-c2ccccc2)c2ccccc12` registered a fluorescence lifetime (in CC1CCCCC1) of 2.48 ns; a fluorescence lifetime (in CC#N) of 1.38 ns; a fluorescence lifetime (in CC(C)CC(C)(C)C) of 2.38 ns; a fluorescence lifetime (in CC(C)O) of 2.94 ns; a fluorescence lifetime (in CCCCCC) of 1.52 ns; a fluorescence lifetime (in CCCCO) of 3.7 ns. Also, the fluorescence lifetime came out at 2.9 ns (in CCO), 2.04 ns (in CO) and 7.53 ns (in OCC(O)CO).
In turn, `O=C(c1ccc(C(=O)c2ccc(N3c4ccccc4Oc4ccccc43)cc2)cc1)c1ccc(N2c3ccccc3Oc3ccccc32)cc1` yielded a fluorescence lifetime (in c1cc(-c2cccc(-n3c4ccccc4c4ccccc43)c2)cc(-n2c3ccccc3c3ccccc32)c1) of 26 ns.
The molecule `COc1cc2c(cc1-c1ccc(C(F)(F)F)cc1)Cc1c3c(c4c(c1-2)-c1cc(OC)c(-c2ccc(C(F)(F)F)cc2)cc1C4)C(=O)N(CCC(C)C)C3=O` gave a fluorescence lifetime (in C1CCOC1) of 2.43 ns.
For `CCNc1ccc2c(c1)C(C)(C)C(=O)C=C2`, where the note is “in O”, the fluorescence lifetime was 3.9 ns.
Where the note is “in CC#N”, `COc1cc(C#Cc2ccccc2)c(C#Cc2ccccc2)cc1OC` came in with a fluorescence lifetime of 2.1 ns.
For the molecule `FC(F)(F)c1ccc(/C2=C3N=C(C(c4ccccc4)=C/3c3ccccc3)/C(c3ccc(C(F)(F)F)cc3)=c3\[nH]/c(c(-c4ccccc4)c3-c3ccccc3)=C(/c3ccc(C(F)(F)F)cc3)C3=N/C(=C(/c4ccc(C(F)(F)F)cc4)c4[nH]c2c(-c2ccccc2)c4-c2ccccc2)C(c2ccccc2)=C3c2ccccc2)cc1`, under “in ClCCl”, the fluorescence lifetime turned out to be 0.423 ns.
Consider `CCCCN1C(=O)c2cc(Br)c3c4c(Br)cc5c6c(cc(Br)c(c7c(Br)cc(c2c37)C1=O)c64)C(=O)N(CCCC)C5=O`, for which the fluorescence lifetime (in ClC(Cl)Cl) was determined as 2.9 ns.
As to `COc1cc(OC)cc(C2=[O+][B-](F)(F)OC(c3ccc4cc(OC)ccc4c3)=C2)c1`, the fluorescence lifetime (in ClCCl) amounted to 4.32 ns.
As for `COc1ccc(-c2oc3cccc4c5c(-c6ccc(OC)c(OC)c6)/c(=N/S(=O)(=O)C(F)(F)F)oc6cccc(c2c34)c65)cc1OC`, under “in ClC(Cl)Cl”, the fluorescence lifetime worked out at 4.4 ns.
`CCCCCCCCCCCCCCCCCCN1C(=O)c2ccc3c4ccc5c6c(ccc(c7ccc(c2c37)C1=O)c64)C(=O)NC5=O` displayed a fluorescence lifetime (in CN(C)C=O) of 3 ns.
In turn, `C1=CC2CC1C1C2[C@@]2(c3ccccc3)N=NC1(c1ccccc1)[C@@H]1C[C@H]12` (some centres undefined) yielded a fluorescence lifetime (in CC#N) of 216 ns.
`Cc1ccccc1-c1nc(-c2ccccc2C)nc(-c2ccc(N3c4ccccc4C4(c5ccccc5-c5ccccc54)c4ccccc43)cc2C)n1`: the fluorescence lifetime under setting [1] was found to be 24 ns.
Regarding `Cc1cc(C)c(C)c(-c2ccc3cc(C)c(=O)oc3c2)c1C`, the fluorescence lifetime reads like this: (in C1CCCCC1) 0.84 ns; (in CC#N) 1.07 ns; (in CO) 1.43 ns.
Molecule `COc1cc(OC)c2cc(C#N)c(=N)oc2c1` came in with a fluorescence lifetime (in ClCCl) of 2.4 ns.
With `c1ccc2c(c1)Nc1ccccc1B2c1c2ccccc2cc2ccccc12`, the fluorescence lifetime (in ClCCl) was determined as 16.8 ns.
Regarding `CC1=[N+]2C(=C(c3cccs3)c3ccc(C)n3[B-]2(F)F)C=C1c1cc2n(c1)[B-](F)(F)[N+]1=CC=CC1=C2c1c(C)cc(C)cc1C`, the fluorescence lifetime is 2.67 ns (in C1CCCCC1) and 0.92 ns (in CCOC(C)=O).
`C/C(=N\Nc1ccc(C#N)cc1)c1ccccn1` came in with a fluorescence lifetime (in CO) of 1.69 ns.
Turning to `CC(C)(C)c1ccc(Oc2cc3c4c(cc(Oc5ccc(C(C)(C)C)cc5)c5c6c(Oc7ccc(C(C)(C)C)cc7)cc7c8c(cc(Oc9ccc(C(C)(C)C)cc9)c(c2c45)c86)C(=O)N(c2ccccc2)C7=O)C(=O)N(c2ccccc2)C3=O)cc1`, for the setting “in ClC(Cl)Cl”, the fluorescence lifetime worked out at 6 ns.
The molecule `Cc1ccc(O)c(-c2nc(C)c3n2CCCC3)c1` came in with a fluorescence lifetime (in ClCCl) of 2.3 ns.
As for `c1ccc(-c2nnc(-c3ccc(N4c5ccccc5N(c5ccccc5)c5ccccc54)cc3)n2-c2ccccc2)cc1`, the fluorescence lifetime (in Cc1ccccc1) worked out at 3.9 ns and the fluorescence lifetime (in c1cc(-n2c3ccccc3c3ccccc32)cc(-n2c3ccccc3c3ccccc32)c1) is 3.5 ns.
For the molecule `CN1CCCc2cc(C3=Cc4cccc[n+]4[B-](F)(F)O3)ccc21`, where the note is “in ClC(Cl)Cl”, the fluorescence lifetime is 3 ns.
In the case of `CC(C)c1cccc(C(C)C)c1N1C(=O)c2cccc3c(Oc4ccc(C(C)(C)c5ccccc5)cc4)ccc(c23)C1=O`, the fluorescence lifetime (in ClCCl) was 1.2 ns.

Values taken from the Deep4Chem optical property database.
